In patent publication US20250129093A1, “COMPOSITIONS AND METHODS RELATING TO ATP/P2X7R SIGNALING INHIBITION” (THE CHILDREN'S MEDICAL CENTER CORPORATION, priority 2022, published 2025):
“Also recorded” adds a separate entry of the source.

Legend:
[1] = system: P2X7R signaling through eATP; experiment: BzATP-stimulated CD4+ T cells from human PBMCs, expression of Th2-related factors; type: cell-based; settings: for inhibition of activation of P2X7R signaling through eATP (expression of Th2-related factors IL-4 and IRF4): human CD4+ T cells stimulated with benzoyl ATP (BzATP)
From the text: Peripheral blood mononuclear cell (PBMCs) were isolated from collected human blood samples and recovered CD4+ T cells were purified and treated with different compounds. In particular cells were activated upon stimulation with benzoyl ATP (BzATP) and treated with human P2X7R inhibitor CE-224,535, P2X7 receptor antagonist oATP and the 6 small molecules identified in the bioinformatics and HTVS approaches above.

[2] = system: P2X7R signaling through eATP; settings: cells of individuals who do not carry the P2X7R mutation; cited from earlier work
[3] = system: CD4+ T cells obtained from individuals carrying the P2X7R mutation; experiment: Th17 generation in vitro in CD4+ T cells from individuals carrying the P2X7R mutation; type: cell-based, human; settings: inhibitor added to the cell culture, carriers of P2X7R mutation rs3751143
From the text: (§1) The P2X7R mutation rs3751143 is associated with the development of increased immunological events, particularly with the development of a HyperTh-17 syndrome, which is mainly characterized by an imbalance between T-helper cells which favors generation of Th-17 cells.

[4] = system: P2X7R−/− mice receiving a Bm12 heart; experiment: Heart allograft survival in P2X7R-/- mice receiving a Bm12 heart; type: in vivo; settings: Bm12 heart transplant, p=0.04
From the text: as §1

C57BL6 (B6) mice = experiment: Survival (longevity) of C57BL6 (B6) mice; type: in vivo; settings: 7.5 mg/Kg
From the text: Given that administration of P2X7R inhibitors is associated with a slow-down of metabolic processes within activated cells/tissues (9) and the effect of eATP in favoring cell senescence, it is contemplated herein that this mechanism could be responsible for promoting longevity and prolonging survival.

Q: For `Cc1ccccc1Nc1nc2nonc2nc1N/N=C\c1cccc2ccccc12` [compound 4, [6-(N′-Naphthalen-1-ylmethylene-hydrazino)-[1,2,5]oxadiazolo[3,4-b]pyrazin-5-yl]-o-tolyl-amine], which “inhibition of activation of P2X7R signaling through eATP (expression of Th2-related factors IL-4 and IRF4)” value (from here on “inhibition”) [1] is on record?
A: The value was “significative ability to inhibit the activation of P2X7R signaling”.

Q: With `COc1ccc(/C=N\Nc2cc(C)nc(NCc3ccccc3)n2)c(OC)c1` [Compound #5, Benzyl-{4-[N′-(2,4-dimethoxy-benzylidene)-hydrazino]-6-methyl-pyrimidin-2-yl}-amine] as the molecule, how does the “effect on the expression of Th2-related factors GATA3, IL-4 and IRF4” value ([1]; PBMCs, FIG. 2, compared with CE-224,535 and oATP) read?
A: Its value is “effect comparable to that of human P2X7R inhibitor CE-224,535 and P2X7 receptor antagonist oATP”.

Q: And the “inhibition” value [1]?
A: Its value is “significative ability to inhibit the activation of P2X7R signaling”.

Q: Which “neutralizing activation of P2X7R signaling through eATP” value [2] does the source give for `Nc1ncnc2c1ncn2[C@@H](C=O)O[C@@H](C=O)COP(=O)(O)OP(=O)(O)OP(=O)(O)O` [oATP] here?
A: The value was “capable of neutralizing activation of P2X7R signaling”.

Q: What about the Th17 generation [3] of the same molecule?
A: The Th17 generation was “at least partially inhibited; also recorded: partially abrogated”.

Q: And the allograft survival [4]?
A: The allograft survival was “significantly prolongs allograft survival”.

Q: What about the MST (C57BL6 (B6) mice) of the same molecule?
A: The MST was 19.5 weeks.

Q: And the treated animals alive (C57BL6 (B6) mice; at 17 weeks)?
A: Its treated animals alive is 60%.

Q: What about the “survival as compared to untreated controls” value (C57BL6 (B6) mice; p=0.01, 7.5 mg/kg) of the same molecule?
A: The value was “significantly prolongs survival; also recorded: increased survival”.

Q: Which “inhibition” value [1] does the source give for `OC(CNCc1ccccc1)COc1ccc(OCC(O)CNCc2ccccc2)cc1` (centres unmarked) [compound 3, 1-Benzylamino-3-[4-(3-benzylamino-2-hydroxy-propoxy)-phenoxy]-propan-2-ol] here?
A: Its value is “significative ability to inhibit the activation of P2X7R signaling”.

Q: Which “inhibition” value [1] does the source give for `O=C(O)c1ccccc1-c1ccccc1C(=O)Nc1cccc(-c2nc3ccccc3[nH]2)c1` [compound 6, 2′-[3-(1H-Benzoimidazol-2-yl)-phenylcarbamoyl]-biphenyl-2-carboxylic acid] here?
A: Its value is “significative ability to inhibit the activation of P2X7R signaling”.
